Experimental data: ChEMBL document CHEMBL4418302, “C-myc ligands capable of dimerizing in an aqueous solution, and methods of using same” (2016)
Activity calls are given as the source filed them. No cut-off for these calls is given here.

The compounds below were run on MV4-11 (assay: Antiproliferative activity against human MV411 cells up to 30 uM incubated for 3 days by Cell-Titer 96 aqueous one solution cell proliferation assay). Settings: not given.
Type: functional, cell-based

SMILES	Activity
O=C(NCc1ccc(B(O)O)cc1)c1ccccc1Nc1ccc([N+](=O)[O-])c2nonc12	inactive
CCc1ccc(/C=C2\SC(=O)N(CCNC(=O)[C@H]3C[C@@H]4C[C@H]3[C@@H](O)[C@H]4O)C2=O)cc1	inactive
O=C(NCc1ccc(B(O)O)cc1)c1ccc(Nc2ccc([N+](=O)[O-])c3nonc23)cc1	inactive
O=C(NCc1cccc(B(O)O)c1)c1ccccc1Nc1ccc([N+](=O)[O-])c2nonc12	inactive

These compounds were tested on Daudi (assay: Antiproliferative activity against human Daudi cells up to 30 uM incubated for 3 days by Cell-Titer 96 aqueous one solution cell proliferation assay). Settings: not given.
Type: functional, cell-based

SMILES	Activity
O=C(NCc1ccc(B(O)O)cc1)c1ccccc1Nc1ccc([N+](=O)[O-])c2nonc12	inactive
CCc1ccc(/C=C2\SC(=O)N(CCNC(=O)[C@H]3C[C@@H]4C[C@H]3[C@@H](O)[C@H]4O)C2=O)cc1	inactive
O=C(NCc1ccc(B(O)O)cc1)c1ccc(Nc2ccc([N+](=O)[O-])c3nonc23)cc1	inactive
O=C(NCc1cccc(B(O)O)c1)c1ccccc1Nc1ccc([N+](=O)[O-])c2nonc12	inactive

The compounds below were run on K562 (assay: Antiproliferative activity against human K562 cells incubated for 3 days by Cell-Titer 96 aqueous one solution cell proliferation assay). Settings: K562, 72 h.
Type: functional, cell-based

IC50 [µM]	SMILES
> 30	O=C(NCc1ccc(B(O)O)cc1)c1ccccc1Nc1ccc([N+](=O)[O-])c2nonc12
> 30	CCc1ccc(/C=C2\SC(=O)N(CCNC(=O)[C@H]3C[C@@H]4C[C@H]3[C@@H](O)[C@H]4O)C2=O)cc1
> 30	O=C(NCc1cccc(B(O)O)c1)c1ccccc1Nc1ccc([N+](=O)[O-])c2nonc12

The compounds below were run on MV4-11 (assay: Antiproliferative activity against human MV411 cells incubated for 3 days by Cell-Titer 96 aqueous one solution cell proliferation assay). Settings: MV4-11, 72 h.
Type: functional, cell-based

IC50 [µM]	SMILES
> 30	O=C(NCc1ccc(B(O)O)cc1)c1ccccc1Nc1ccc([N+](=O)[O-])c2nonc12
> 30	CCc1ccc(/C=C2\SC(=O)N(CCNC(=O)[C@H]3C[C@@H]4C[C@H]3[C@@H](O)[C@H]4O)C2=O)cc1
> 30	O=C(NCc1cccc(B(O)O)c1)c1ccccc1Nc1ccc([N+](=O)[O-])c2nonc12

These compounds were tested on K562 (assay: Antiproliferative activity against human K562 cells up to 30 uM incubated for 3 days by Cell-Titer 96 aqueous one solution cell proliferation assay). Settings: not given.
Type: functional, cell-based

SMILES	Activity
O=C(NCc1ccc(B(O)O)cc1)c1ccccc1Nc1ccc([N+](=O)[O-])c2nonc12	inactive
CCc1ccc(/C=C2\SC(=O)N(CCNC(=O)[C@H]3C[C@@H]4C[C@H]3[C@@H](O)[C@H]4O)C2=O)cc1	inactive
O=C(NCc1ccc(B(O)O)cc1)c1ccc(Nc2ccc([N+](=O)[O-])c3nonc23)cc1	inactive
O=C(NCc1cccc(B(O)O)c1)c1ccccc1Nc1ccc([N+](=O)[O-])c2nonc12	inactive

Each compound was assayed on Daudi (assay: Antiproliferative activity against human Daudi cells incubated for 3 days by Cell-Titer 96 aqueous one solution cell proliferation assay). Settings: 72 h.
Type: functional, cell-based

IC50 [µM]	SMILES
> 30	O=C(NCc1ccc(B(O)O)cc1)c1ccccc1Nc1ccc([N+](=O)[O-])c2nonc12
> 30	CCc1ccc(/C=C2\SC(=O)N(CCNC(=O)[C@H]3C[C@@H]4C[C@H]3[C@@H](O)[C@H]4O)C2=O)cc1
> 30	O=C(NCc1cccc(B(O)O)c1)c1ccccc1Nc1ccc([N+](=O)[O-])c2nonc12

What follows are compounds tested against Myc proto-oncogene protein (Homo sapiens, UniProt P01106) (assay: Binding affinity to recombinant full-length DDK-tagged human c-Myc expressed in HEK293T cells assessed as inhibition of Max/c-Myc protein-protein interaction incubated for 1 hr by ELISA). Settings: not given.
Type: cell-based

Sequence of Myc proto-oncogene protein (P01106 whole entry): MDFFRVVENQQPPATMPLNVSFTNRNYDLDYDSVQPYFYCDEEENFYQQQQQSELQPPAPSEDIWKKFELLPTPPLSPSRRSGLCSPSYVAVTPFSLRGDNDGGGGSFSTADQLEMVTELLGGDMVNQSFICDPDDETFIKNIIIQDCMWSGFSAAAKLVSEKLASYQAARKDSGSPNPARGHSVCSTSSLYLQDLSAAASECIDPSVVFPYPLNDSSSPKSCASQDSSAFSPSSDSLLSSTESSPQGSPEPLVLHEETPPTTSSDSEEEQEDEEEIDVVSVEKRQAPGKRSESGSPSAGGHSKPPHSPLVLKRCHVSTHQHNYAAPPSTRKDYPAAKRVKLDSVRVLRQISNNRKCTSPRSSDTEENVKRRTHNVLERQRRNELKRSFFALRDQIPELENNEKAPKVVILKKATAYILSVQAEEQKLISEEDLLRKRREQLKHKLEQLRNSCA

SMILES	IC50 [µM]
CCc1ccc(/C=C2\SC(=O)N(CC[C@H]3C[C@@H]4C[C@H]3[C@@H](O)[C@H]4O)C2=O)cc1	> 30
CCc1ccc(/C=C2\SC(=O)N(CCNC(=O)[C@H]3C[C@H]4C=C[C@@H]3C4)C2=O)cc1	> 30

Now from value to compound:

IC50 [µM]	SMILES
> 30	O=C(NCc1ccc(B(O)O)cc1)c1ccccc1Nc1ccc([N+](=O)[O-])c2nonc12
> 30	CCc1ccc(/C=C2\SC(=O)N(CCNC(=O)[C@H]3C[C@@H]4C[C@H]3[C@@H](O)[C@H]4O)C2=O)cc1
> 30	CCc1ccc(/C=C2\SC(=O)N(CC[C@H]3C[C@H]4C=C[C@@H]3C4)C2=O)cc1 (single isomer, unassigned)
> 30	CCc1ccc(/C=C2\SC(=O)NC2=O)cc1
> 30	NC(=O)c1ccccc1Nc1ccc([N+](=O)[O-])c2nonc12
